Measured values reported in paper PMC5727059, “Antagonistic effect of dopamine structural analogues on human GABAρ1 receptor” (Scientific Reports, 2017).
Entries after “also recorded” stand apart in the source; their conditions may differ. Like-named read-outs stand apart in the source and are kept apart here.

Legend:
human GABAρ1 [1] = target: T1, human GABAρ1 (Homo sapiens, UniProt P24046); test: Modulation of activated GABAρ1: analogue applied during the current plateau upon activation with 3 µM GABA, oocytes; format: cell-based; conditions: for Efficacy % to inhibit GABA responses: activated GABA channels (Fig. 5D empty bars), applied during 3 µM GABA perfusion
T1 construct: expressed in transfected cells; host or cells: Xenopus laevis oocytes injected with in vitro transcribed mRNA

LGC-53 = LGC-53 (Caenorhabditis elegans, UniProt H2KYN9); test: cell-based; format: cell-based; conditions: for gating or modulation of LGC-53: high concentrations (up to 1 mM); for Emax: read-out: Maximal effect versus maximal response to DA, % current;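 on all read-outs here: LGC-53 expressed in frog oocytes, two-electrode voltage clamp at −60 mV, analogues bath-applied, full or partial agonism judged by maximal effect against DA applied before and after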
human GABAρ1 [2] = target: T1, human GABAρ1; test: Inhibition of GABA currents by co-application of 3 µM GABA and analogue, two-microelectrode voltage clamp in X. laevis oocytes; format: cell-based; conditions: for extent of inhibition of GABA currents at high concentrations: maximum inhibition compared with full inhibition (100%); for Emax: read-out: Maximal effect on GABA currents, % Inh; for effect on the responses generated by 3 μM GABA: concentrations up to 20 mM, data not shown;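 on all read-outs here: oocytes expressing human GABAρ1 from injected mRNA, recorded 1–5 days later, clamped at −60 mV, room temperature, compounds bath-applied at pH 7.4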
human GABAρ1 [3] = target: T1, human GABAρ1; test: Current-voltage ramp (−120 to +70 mV) of GABA currents in presence of the IC50 of each compound, oocytes; format: cell-based; conditions: 3 µM GABA, compound at its IC50; GABA alone as reference
Method: All these compounds are ionized at pH 7.4.
Supplementary Figure S2. I/V Curves A) Current−voltage relations for GABA currents modulated in presence of DA
analogues. B). Percentage of inhibition of DA analogues (for each compound the IC50s were tested) in the currents
Reverse potentials were: -35.25 ± 1.04 mV, -35.69 ±
reverse potential was -35.07 ± 0.90 mV.
(1 picture or pasted object on this page, not shown here)

human GABAρ1 [4] = target: T1, human GABAρ1; design: method as in Ochoa de la Paz et al., 2012; conditions: Table 1, ref Ochoa de la Paz et al., 2012, cited from earlier work; for IC50: read-out: GABA ρ1 (Human) IC50, oocytes
human GABAρ1 [5] = target: T1, human GABAρ1; test: Competition assays: GABA concentration-response curves in presence of 3-MT, oocytes; format: cell-based
[6] = receptor activated with GABA 3 µM
[7] = Fig. 7C, maximal concentration tested, DA 300 µM

LGC-53, sequence (H2KYN9 entry or part of it): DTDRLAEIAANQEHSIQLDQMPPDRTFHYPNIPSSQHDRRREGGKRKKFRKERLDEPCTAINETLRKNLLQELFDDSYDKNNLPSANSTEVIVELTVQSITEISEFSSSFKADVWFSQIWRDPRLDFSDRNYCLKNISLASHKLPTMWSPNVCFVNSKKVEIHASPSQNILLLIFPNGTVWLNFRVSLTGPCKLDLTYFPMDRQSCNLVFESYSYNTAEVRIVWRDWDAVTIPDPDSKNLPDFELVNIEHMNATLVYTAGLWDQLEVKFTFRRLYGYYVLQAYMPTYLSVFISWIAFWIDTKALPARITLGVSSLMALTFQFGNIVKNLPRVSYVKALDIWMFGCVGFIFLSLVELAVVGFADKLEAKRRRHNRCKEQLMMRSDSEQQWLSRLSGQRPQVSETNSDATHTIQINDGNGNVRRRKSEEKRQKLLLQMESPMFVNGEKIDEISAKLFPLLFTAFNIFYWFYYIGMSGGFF
T1 sequence (P24046 22-479): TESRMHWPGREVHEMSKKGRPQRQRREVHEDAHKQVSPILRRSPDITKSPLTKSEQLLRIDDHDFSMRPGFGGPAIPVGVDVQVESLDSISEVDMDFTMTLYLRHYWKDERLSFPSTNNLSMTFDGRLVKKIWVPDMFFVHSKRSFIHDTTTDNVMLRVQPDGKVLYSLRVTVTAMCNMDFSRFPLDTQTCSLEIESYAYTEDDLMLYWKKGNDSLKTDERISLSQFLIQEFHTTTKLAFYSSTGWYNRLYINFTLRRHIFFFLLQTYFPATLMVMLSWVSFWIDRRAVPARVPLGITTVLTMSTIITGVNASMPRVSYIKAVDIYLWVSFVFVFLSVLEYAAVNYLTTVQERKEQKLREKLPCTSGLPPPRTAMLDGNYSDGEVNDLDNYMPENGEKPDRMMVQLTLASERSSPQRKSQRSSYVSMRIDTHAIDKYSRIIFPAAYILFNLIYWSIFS

Compound: COc1cc(CCN)ccc1O [3-MT, 3-Methoxytyramine]
- Efficacy % to inhibit GABA responses (human GABAρ1 [1]): 51.65 ± 6.93%
- decrease of potency on activated receptor versus co-application (human GABAρ1 [1]; [6]): 2 fold
- activity on LGC-53 (LGC-53): inactive
- LGC-53 EC50 (mM) (LGC-53; Table 1): N.E
- gating or modulation of LGC-53 (LGC-53): Neither GABA nor 3-MT gated the channel or showed an evident modulatory effect
- GABA ρ1 (Human) Antagonist: Full or partial (human GABAρ1 [2]; Table 1): full
- extent of inhibition of GABA currents at high concentrations (human GABAρ1 [2]): Full inhibition
- IC50 (human GABAρ1 [2]; read-out: GABA ρ1 (Human) IC50, Table 1, oocytes): 285 ± 3 µM
- Emax (human GABAρ1 [2]): 100 ± 2.17%
- reversal potential of GABA currents (human GABAρ1 [3]): -35.25 ± 1.04 mV

Compound: NCCCCO [4-AM-1-OH, 4-Amino-1-butanol]
- Efficacy % to inhibit GABA responses (human GABAρ1 [1]): 65.50 ± 4.77%
- increase of potency on activated receptor versus co-application (human GABAρ1 [1]; receptor activated with GABA 3 µM, not statistically significant): about 25%
- LGC-53 EC50 (mM) (LGC-53; Table 1): N.E
- GABA ρ1 (Human) Antagonist: Full or partial (human GABAρ1 [2]; Table 1): full
- IC50 (human GABAρ1 [2]; Table 1, oocytes): 3910 ± 544 µM
- Emax (human GABAρ1 [2]): 98.3 ± 7.3%

Compound: CNC[C@H](O)c1ccc(O)c(O)c1 [AD, Adrenaline]
- LGC-53 Agonist: Full or partial (LGC-53): partial
- agonist type on LGC-53 (LGC-53): partial agonists
- EC50 (LGC-53; LGC-53 EC50 (mM)): 3.8 ± 0.803 mM
- Emax (LGC-53): 59.2 ± 9.4%
- GABA ρ1 (Human) IC50 (mM) (human GABAρ1 [2]; Table 1, oocytes): N.E
- effect on the responses generated by 3 μM GABA (human GABAρ1 [2]): failed to elicit any effect

Compound: NCCc1ccc(O)c(O)c1 [DA, Dopamine]
- Efficacy % to inhibit GABA responses (human GABAρ1 [1]): 61.94 ± 6.66%
- decrease of potency on activated receptor versus co-application (human GABAρ1 [1]; [6]): around 10 fold
- LGC-53 Agonist: Full or partial (LGC-53): full
- EC50 (LGC-53; EC50 on LGC-53): 0.00415 ± 0.0011 mM
- EC50 (LGC-53; LGC-53 EC50 (mM)): 0.0042 ± 0.001 mM
- currents generated by the compound alone in oocytes injected with human ρ1 (human GABAρ1 [2]; DA up to 1 mM, no GABA): did not generate evident currents
- extent of inhibition of GABA currents at high concentrations (human GABAρ1 [2]): Full inhibition
- Emax (human GABAρ1 [2]): 94.3 ± 5.84%
- GABA ρ1 (Human) Antagonist: Full or partial (human GABAρ1 [4]): full
- IC50 (human GABAρ1 [4]): 210 ± 1.12 µM

Compound: O=C(O)Cc1ccc(O)c(O)c1 [DOPAC, 3,4-Dihydroxyphenylacetic acid]
- change in potency/efficacy between activated receptor and co-application protocols (human GABAρ1 [1]; [6]): did not show differences in the efficacy or potency
- LGC-53 EC50 (mM) (LGC-53; Table 1): N.E
- GABA ρ1 (Human) Antagonist: Full or partial (human GABAρ1 [2]; Table 1): partial
- IC50 (human GABAρ1 [2]; Table 1, oocytes): 2250 ± 258 µM
- extent of inhibition of GABA currents at high concentrations (human GABAρ1 [2]): significantly different from the full inhibition
- Emax (human GABAρ1 [2]): 93.6 ± 2.41%

Compound: NCCCC(=O)O [GABA, γ-Aminobutyric acid]
- Hill number of GABA concentration-response curve (human GABAρ1 [5]; 3-MT at its IC25): 1.38 ± 0.24
- Hill number of GABA concentration-response curve (human GABAρ1 [5]; 3-MT at its IC50): 1.40 ± 0.27
- Hill number of GABA concentration-response curve (human GABAρ1 [5]; 3-MT at its IC75): 1.90 ± 0.36
- Hill number of GABA concentration-response curve (human GABAρ1 [5]; GABA alone): 1.34 ± 0.37
- activity on LGC-53 (LGC-53): not modulated; also recorded: neither activated LGC-53 nor modulated the DA responses
- gating or modulation of LGC-53 (LGC-53): Neither GABA nor 3-MT gated the channel or showed an evident modulatory effect
- reversal potential of GABA currents (human GABAρ1 [3]): -35.07 ± 0.90 mV

Compound: COc1cc(CC(=O)O)ccc1O [HVA, Homovanillic acid]
- change in potency/efficacy between activated receptor and co-application protocols (human GABAρ1 [1]; [6]): did not show differences in the efficacy or potency
- LGC-53 EC50 (mM) (LGC-53; Table 1): N.E
- GABA ρ1 (Human) Antagonist: Full or partial (human GABAρ1 [2]; Table 1): partial
- IC50 (human GABAρ1 [2]; Table 1, oocytes): 1970 ± 211 µM
- extent of inhibition of GABA currents at high concentrations (human GABAρ1 [2]): significantly different from the full inhibition
- Emax (human GABAρ1 [2]): 86.5 ± 1.89%

Compound: N[C@@H](Cc1ccc(O)c(O)c1)C(=O)O [L-DOPA, L-3,4-dihydroxyphenylalanine]
- LGC-53 EC50 (mM) (LGC-53; Table 1): N.E
- GABA ρ1 (Human) IC50 (mM) (human GABAρ1 [2]; Table 1, oocytes): N.E

Compound: NC[C@H](O)c1ccc(O)c(O)c1 [NAD, Noradrenaline]
- EC50 (LGC-53): 0.137 ± 0.072 mM
- LGC-53 Agonist: Full or partial (LGC-53; Table 1): partial
- Emax (LGC-53): 61 ± 13%
- GABA ρ1 (Human) IC50 (mM) (human GABAρ1 [2]; Table 1, oocytes): N.E
- effect on the responses generated by 3 μM GABA (human GABAρ1 [2]): failed to elicit any effect

Compound: NCCc1ccc(O)cc1 [Tyr, Tyramine]
- agonist type on LGC-53 (LGC-53): partial agonists
- Emax (LGC-53; [7]): 64.7 ± 9.6%
- LGC-53 Agonist: Full or partial (LGC-53; Table 1): partial
- EC50 (LGC-53; Table 1, read-out: LGC-53 EC50): 2.18 ± 0.482 mM
- GABA ρ1 (Human) Antagonist: Full or partial (human GABAρ1 [4]): full
- IC50 (human GABAρ1 [4]): 550 ± 12 µM

Compound: NCCc1ccccc1 [β-PEA, 2-Phenylethylamine]
- Efficacy % to inhibit GABA responses (human GABAρ1 [1]): 63.62 ± 11.44%
- decrease of potency on activated receptor versus co-application (human GABAρ1 [1]; [6]): 2 fold
- EC50 (LGC-53): 1.33 ± 0.433 mM
- agonist type on LGC-53 (LGC-53): partial agonists
- Emax (LGC-53; [7]): 48.5 ± 10.4%
- LGC-53 Agonist: Full or partial (LGC-53; Table 1): partial
- IC50 (human GABAρ1 [2]): 1790 ± 104 µM
- GABA ρ1 (Human) Antagonist: Full or partial (human GABAρ1 [2]; Table 1): full
- Emax (human GABAρ1 [2]): 97.3 ± 2.73%
